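Values below derive from 48-hour exposures of cells grown in 96-well plates, with endpoints linearly interpolated between the two concentrations bracketing the appropriate inhibition level. The concentration for 50% growth inhibition is given as GI50.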 The source made the active and inactive calls. No stated cut-off is given here; in the data, active = GI50 up to about 1.1 µM and inactive = higher.
Columns and labels:
Experiment in all cases: DTP human tumour cell line panel, 48 h
[1] = tested on: MCF7
[2] = tested on: EKVX
[3] = tested on: SN12C
[4] = tested on: T47D
[5] = tested on: SNB-19
[6] = tested on: SF-268
[7] = tested on: BT-549
[8] = tested on: M14
[9] = tested on: SNB-75
[10] = tested on: 786-0
[11] = tested on: UO-31
[12] = tested on: K562
[13] = tested on: TK-10
[14] = tested on: COLO 205
[15] = tested on: ACHN
[16] = tested on: SK-OV-3
[17] = tested on: DU-145
[18] = tested on: OVCAR-8
[19] = tested on: HCT-15
[20] = tested on: SF-295
[21] = tested on: HL-60
[22] = tested on: SK-MEL-5
[23] = tested on: Malme-3M
[24] = tested on: HT-29
[25] = tested on: A549
[26] = tested on: CCRF-CEM
[27] = tested on: A498
[28] = tested on: CAKI-1
[29] = tested on: MOLT-4
[30] = tested on: RPMI-8226
[31] = tested on: OVCAR-4
[32] = tested on: RXF 393
[33] = tested on: UACC-62
[34] = tested on: NCI-H23
[35] = tested on: Hs-578T
[36] = tested on: HOP-92
[37] = tested on: MDA-N
[38] = tested on: SW-620
[39] = tested on: MDA-MB-435
[40] = tested on: NCI-H522
[41] = tested on: MDA-MB-231
[42] = tested on: U-251
[43] = tested on: OVCAR-5
[44] = tested on: SK-MEL-2
[45] = tested on: NCI-H460
[46] = tested on: SF-539
[47] = tested on: NCI-H226
[48] = tested on: PC-3
[49] = tested on: IGROV-1
[50] = tested on: SK-MEL-28
[51] = tested on: UACC-257
[52] = tested on: KM12
[53] = tested on: HCT-116
[54] = tested on: OVCAR-3
[55] = tested on: NCI/ADR-RES
[56] = tested on: HCC 2998
[57] = tested on: LOX IMVI
[58] = tested on: HOP-62

Cc1[nH]n(-c2nc(O)c(C)c(=O)[nH]2)c(=O)c1CCO
GI50 [1]: > 100 µM (inactive) | GI50 [2]: > 100 µM (inactive) | GI50 [3]: > 100 µM (inactive) | GI50 [4]: > 100 µM (inactive) | GI50 [5]: > 100 µM (inactive) | GI50 [6]: > 100 µM (inactive) | GI50 [7]: > 100 µM (inactive) | GI50 [8]: > 100 µM (inactive) | GI50 [9]: 45.6 µM (inactive) | GI50 [10]: > 100 µM (inactive) | GI50 [11]: > 100 µM (inactive) | GI50 [12]: > 100 µM (inactive) | GI50 [13]: > 100 µM (inactive) | GI50 [14]: > 100 µM (inactive) | GI50 [15]: > 100 µM (inactive) | GI50 [16]: > 100 µM (inactive) | GI50 [17]: > 100 µM (inactive) | GI50 [18]: > 100 µM (inactive) | GI50 [19]: > 100 µM | GI50 [20]: > 100 µM (inactive) | GI50 [21]: > 100 µM (inactive) | GI50 [22]: > 100 µM (inactive) | GI50 [23]: > 100 µM (inactive) | GI50 [24]: > 100 µM (inactive) | GI50 [25]: > 100 µM (inactive) | GI50 [26]: > 100 µM (inactive) | GI50 [27]: > 100 µM (inactive) | GI50 [28]: > 100 µM (inactive) | GI50 [29]: > 100 µM (inactive) | GI50 [30]: > 100 µM (inactive) | GI50 [31]: > 100 µM (inactive) | GI50 [32]: 22.6 µM (inactive) | GI50 [33]: > 100 µM (inactive) | GI50 [34]: > 100 µM (inactive) | GI50 [35]: > 100 µM (inactive) | GI50 [36]: > 100 µM (inactive) | GI50 [37]: > 100 µM (inactive) | GI50 [38]: > 100 µM (inactive) | GI50 [39]: > 100 µM (inactive) | GI50 [40]: > 100 µM (inactive) | GI50 [41]: > 100 µM (inactive) | GI50 [42]: > 100 µM (inactive) | GI50 [43]: > 100 µM (inactive) | GI50 [44]: > 100 µM (inactive) | GI50 [45]: > 100 µM (inactive) | GI50 [46]: > 100 µM (inactive) | GI50 [47]: > 100 µM (inactive) | GI50 [48]: > 100 µM (inactive) | GI50 [49]: > 100 µM (inactive) | GI50 [50]: > 100 µM (inactive) | GI50 [51]: > 100 µM (inactive) | GI50 [52]: > 100 µM (inactive) | GI50 [53]: > 100 µM (inactive)

CNNC1=NS(=O)(=O)c2cc(C)c(Cl)cc2S1
GI50 [2]: > 10 µM (inactive) | GI50 [3]: > 10 µM (inactive) | GI50 [4]: > 10 µM (inactive) | GI50 [5]: > 10 µM (inactive) | GI50 [6]: > 10 µM (inactive) | GI50 [54]: > 10 µM (inactive) | GI50 [7]: > 10 µM (inactive) | GI50 [8]: > 10 µM (inactive) | GI50 [9]: > 10 µM (inactive) | GI50 [10]: > 10 µM (inactive) | GI50 [11]: 0.0344 µM (active) | GI50 [12]: > 10 µM (inactive) | GI50 [13]: > 10 µM (inactive) | GI50 [55]: > 10 µM (inactive) | GI50 [14]: > 10 µM (inactive) | GI50 [56]: > 10 µM (inactive) | GI50 [15]: > 10 µM (inactive) | GI50 [16]: > 10 µM (inactive) | GI50 [17]: > 10 µM (inactive) | GI50 [18]: > 10 µM (inactive) | GI50 [19]: > 10 µM | GI50 [20]: > 10 µM (inactive) | GI50 [21]: > 10 µM (inactive) | GI50 [22]: > 10 µM (inactive) | GI50 [23]: > 10 µM (inactive) | GI50 [24]: > 10 µM (inactive) | GI50 [25]: > 10 µM (inactive) | GI50 [26]: > 10 µM (inactive) | GI50 [27]: > 10 µM (inactive) | GI50 [57]: > 10 µM (inactive) | GI50 [28]: > 10 µM (inactive) | GI50 [29]: > 10 µM (inactive) | GI50 [30]: > 10 µM (inactive) | GI50 [31]: > 10 µM (inactive) | GI50 [32]: > 10 µM (inactive) | GI50 [33]: > 10 µM (inactive) | GI50 [34]: > 10 µM (inactive) | GI50 [35]: > 10 µM (inactive) | GI50 [37]: > 10 µM (inactive) | GI50 [58]: > 10 µM (inactive) | GI50 [38]: > 10 µM (inactive) | GI50 [39]: > 10 µM (inactive) | GI50 [40]: > 10 µM (inactive) | GI50 [41]: > 10 µM (inactive) | GI50 [42]: > 10 µM (inactive) | GI50 [43]: > 10 µM (inactive) | GI50 [44]: > 10 µM (inactive) | GI50 [45]: > 10 µM (inactive) | GI50 [46]: > 10 µM (inactive) | GI50 [47]: > 10 µM (inactive) | GI50 [48]: > 10 µM (inactive) | GI50 [49]: > 10 µM (inactive) | GI50 [50]: > 10 µM (inactive) | GI50 [51]: > 10 µM (inactive) | GI50 [52]: > 10 µM (inactive) | GI50 [53]: > 10 µM (inactive)
